Laboratory results published in PubChem BioAssay AID330 (DTP/NCI, 2004).
“And” between values parts separate entries of the source, which are not always exact repeats. Equal values may be shown once. Toxic doses and inconclusive results are not listed. How the source made its calls: active means survival T/C of 150% or more; inactive means T/C below 125% in these data.

Test system: P388 leukemia ip, CD2F1 mice, survival T/C
Experiment: NCI In Vivo Anticancer Drug Screen. Data for tumor model P388 Leukemia (intraperitoneal) in CD2F1 (CDF1) mice
Details: endpoint: median survival time, higher = longer survival
Outline: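 Mice carrying the transplanted tumor received test compound or vehicle. Survival was recorded in each group, and the value is the treated-group measurement divided by that of the vehicle-treated control group.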

[1] = dose: 50.0 mg/kg/injection, schedule: Q01DX009 (ip), vehicle: saline
[2] = dose: 100.0 mg/kg/injection, schedule: Q01DX009 (ip), vehicle: saline
[3] = dose: 200.0 mg/kg/injection, schedule: Q01DX009 (ip), vehicle: saline
[4] = dose: 50.0 mg/kg/injection, schedule: Q01DX009 (ip), vehicle: saline with Tween-80
[5] = dose: 100.0 mg/kg/injection, schedule: Q01DX009 (ip), vehicle: saline with Tween-80
[6] = dose: 200.0 mg/kg/injection, schedule: Q01DX009 (ip), vehicle: saline with Tween-80
[7] = dose: 25.0 mg/kg/injection, schedule: Q01DX009 (ip), vehicle: saline with Tween-80
[8] = dose: 100.0 mg/kg/injection, schedule: Q01DX001 (ip), vehicle: saline
[9] = dose: 200.0 mg/kg/injection, schedule: Q01DX001 (ip), vehicle: saline
[10] = dose: 400.0 mg/kg/injection, schedule: Q01DX001 (ip), vehicle: saline
[11] = dose: 200.0 mg/kg/injection, schedule: Q01DX005 (ip), vehicle: Klucel (hydroxypropylcellulose) (HPC)
[12] = dose: 100.0 mg/kg/injection, schedule: Q04DX003 (ip), vehicle: saline with Tween-80
[13] = dose: 200.0 mg/kg/injection, schedule: Q04DX003 (ip), vehicle: saline with Tween-80

Measured: T/C

O=C(SCCO)SCCO
inactive: [1] 86 % of control | [2] 89 % of control | [3] 88 % of control

Cc1nc2c(c(-c3ccc(Cl)cc3)n1)Cc1c(ccc3ccccc13)O2
inactive: [1] 107 % of control and 95 % of control | [2] 100 % of control | [3] 100 % of control and 94 % of control

CNc1nc(NC)nc(NC)n1
inactive: dose: 12.5 mg/kg/injection, schedule: Q01DX009 (ip), vehicle: saline 95 % of control | dose: 25.0 mg/kg/injection, schedule: Q01DX009 (ip), vehicle: saline 104 % of control | [1] 95 % of control | [2] 93 % of control

N#Cc1c(-c2ccccc2)c(-c2ccccc2)n(-c2ccccc2)c1N
inactive: [4] 104 % of control | [5] 104 % of control | [6] 104 % of control

Nc1nc2nc[nH]c2c(=O)[nH]1
inactive: [7] 97 % of control | [4] 98 % of control | [5] 90 % of control | dose: 100.0 mg/kg/injection, schedule: Q01DX009 (ip), vehicle: suspension in saline 97 % of control | [6] 90 % of control | dose: 200.0 mg/kg/injection, schedule: Q01DX009 (ip), vehicle: suspension in saline 92 % of control | dose: 400.0 mg/kg/injection, schedule: Q01DX009 (ip), vehicle: suspension in saline 87 % of control

O=S(=O)(O)CCc1nn[nH]n1
inactive: [8] 100 % of control | [9] 101 % of control | [10] 101 % of control

CCCn1c(CC)nc([N+](=O)[O-])c1Sc1ncnc2nc[nH]c12
inactive: dose: 12.5 mg/kg/injection, schedule: Q01DX005 (ip), vehicle: Klucel (hydroxypropylcellulose) (HPC) 107 % of control | dose: 25.0 mg/kg/injection, schedule: Q01DX005 (ip), vehicle: Klucel (hydroxypropylcellulose) (HPC) 123 % of control | [11] 111 % of control

BrP(Cc1ccccc1-c1ccccc1CP(Br)(c1ccccc1)(c1ccccc1)c1ccccc1)(c1ccccc1)(c1ccccc1)c1ccccc1
inactive: dose: 1.56 mg/kg/injection, schedule: Q01DX009 (ip), vehicle: saline 103 % of control | dose: 3.12 mg/kg/injection, schedule: Q01DX009 (ip), vehicle: saline 102 % of control | dose: 6.25 mg/kg/injection, schedule: Q01DX009 (ip), vehicle: saline 100 % of control and 103 % of control

CCOC(=O)c1nc(OCC)nc(OCC)c1I
inactive: dose: 12.5 mg/kg/injection, schedule: Q01DX009 (ip), vehicle: distilled water + Tween-80 112 % of control | dose: 25.0 mg/kg/injection, schedule: Q01DX009 (ip), vehicle: distilled water + Tween-80 107 % of control | dose: 50.0 mg/kg/injection, schedule: Q01DX009 (ip), vehicle: distilled water + Tween-80 96 % of control | dose: 100.0 mg/kg/injection, schedule: Q01DX009 (ip), vehicle: distilled water + Tween-80 95 % of control

COc1cccc2c1C(=O)c1c(O)c3c(c(O)c1C2=O)CC(O)(C(=O)CBr)CC3OC1CC(OC(C)=O)C(OC(C)=O)C(C)O1 (centres undefined)
inactive: dose: 3.13 mg/kg/injection, schedule: Q04DX003 (ip), vehicle: distilled water + Tween-80 108 % of control | dose: 6.25 mg/kg/injection, schedule: Q04DX003 (ip), vehicle: distilled water + Tween-80 98 % of control | dose: 12.5 mg/kg/injection, schedule: Q04DX003 (ip), vehicle: distilled water + Tween-80 106 % of control | dose: 25.0 mg/kg/injection, schedule: Q04DX003 (ip), vehicle: distilled water + Tween-80 109 % of control | dose: 50.0 mg/kg/injection, schedule: Q04DX003 (ip), vehicle: distilled water + Tween-80 105 % of control

Cc1cn(CCCCCCCCCCCCOc2c3occc3cc3ccc(=O)oc23)c(=O)[nH]c1=O
inactive: dose: 50.0 mg/kg/injection, schedule: Q04DX002 (ip), vehicle: Klucel (hydroxypropylcellulose) (HPC) 96 % of control | dose: 100.0 mg/kg/injection, schedule: Q04DX002 (ip), vehicle: Klucel (hydroxypropylcellulose) (HPC) 98 % of control | [11] 92 % of control | dose: 200.0 mg/kg/injection, schedule: Q04DX002 (ip), vehicle: Klucel (hydroxypropylcellulose) (HPC) 95 % of control

CC(=O)Oc1c2c(c(C)c3ccccc13)C(=O)c1cccnc1C2=O
inactive: [8] 98 % of control | [9] 89 % of control | [10] 92 % of control

CCC(C)C(=O)Nc1ccccc1-c1ccccc1 (centres undefined)
inactive: dose: 12.5 mg/kg/injection, schedule: Q01DX009 (ip), vehicle: saline with Tween-80 99 % of control | [7] 100 % of control | [4] 103 % of control | [1] 91 % of control

Cc1cccc2c(SCCCCCCSc3c4ccccc4nc4c(C)cccc34)c3ccccc3nc12
inactive: dose: 60.0 mg/kg/injection, schedule: Q01DX005 (ip), vehicle: Klucel (hydroxypropylcellulose) (HPC) 90 % of control | dose: 120.0 mg/kg/injection, schedule: Q01DX005 (ip), vehicle: Klucel (hydroxypropylcellulose) (HPC) 92 % of control | dose: 240.0 mg/kg/injection, schedule: Q01DX005 (ip), vehicle: Klucel (hydroxypropylcellulose) (HPC) 91 % of control

CCC(CC)C[Se][Se]CC(CC)CC
inactive: dose: 6.25 mg/kg/injection, schedule: Q01DX009 (ip), vehicle: Klucel (hydroxypropylcellulose) (HPC) 100 % of control | dose: 12.5 mg/kg/injection, schedule: Q01DX009 (ip), vehicle: Klucel (hydroxypropylcellulose) (HPC) 101 % of control | dose: 25.0 mg/kg/injection, schedule: Q01DX009 (ip), vehicle: Klucel (hydroxypropylcellulose) (HPC) 103 % of control

Cc1ccc(-c2nc3n(c2/C=N/NC(N)=S)CCS3)cc1
inactive: dose: 100.0 mg/kg/injection, schedule: Q01DX001 (ip), vehicle: saline with Tween-80 109 % of control | dose: 200.0 mg/kg/injection, schedule: Q01DX001 (ip), vehicle: saline with Tween-80 103 % of control | dose: 400.0 mg/kg/injection, schedule: Q01DX001 (ip), vehicle: saline with Tween-80 97 % of control

Cc1c(N(C)c2ccccc2)c(=S)n(C)c(=S)n1C
inactive: dose: 50.0 mg/kg/injection, schedule: Q01DX005 (ip), vehicle: Klucel (hydroxypropylcellulose) (HPC) 89 % of control | dose: 100.0 mg/kg/injection, schedule: Q01DX005 (ip), vehicle: Klucel (hydroxypropylcellulose) (HPC) 100 % of control | [11] 90 % of control

COC(=O)CC1(C(=O)OC)C2=C(CCSC2)N2CCCC21 (centres undefined)
inactive: dose: 3.75 mg/kg/injection, schedule: Q01DX009 (ip), vehicle: Klucel (hydroxypropylcellulose) (HPC) 97 % of control | dose: 7.5 mg/kg/injection, schedule: Q01DX009 (ip), vehicle: Klucel (hydroxypropylcellulose) (HPC) 97 % of control | dose: 15.0 mg/kg/injection, schedule: Q01DX009 (ip), vehicle: Klucel (hydroxypropylcellulose) (HPC) 100 % of control | dose: 30.0 mg/kg/injection, schedule: Q01DX009 (ip), vehicle: Klucel (hydroxypropylcellulose) (HPC) 100 % of control

C=CN=NNc1ccc(C#N)cc1
inactive: [12] 90 % of control | [13] 106 % of control

CC(/C=C/c1ccc2c(c1)OCO2)=N\NC(N)=O
inactive: dose: 50.0 mg/kg/injection, schedule: Q01DX005 (ip), vehicle: saline with Tween-80 100 % of control | dose: 100.0 mg/kg/injection, schedule: Q01DX005 (ip), vehicle: saline with Tween-80 97 % of control | dose: 200.0 mg/kg/injection, schedule: Q01DX005 (ip), vehicle: saline with Tween-80 95 % of control

CCCCCCCCC(Cn1ccnc1)c1ccc(F)cc1 (centres undefined)
inactive: dose: 50.0 mg/kg/injection, schedule: Q04DX003 (ip), vehicle: saline with Tween-80 106 % of control | [12] 100 % of control and 103 % of control | [13] 100 % of control

CCOC(=O)C1(c2ccccc2)CCCN(C)CC1 (centres undefined)
inactive: dose: 25.0 mg/kg/injection, schedule: Q04DX003 (ip), vehicle: saline 107 % of control | dose: 50.0 mg/kg/injection, schedule: Q04DX003 (ip), vehicle: saline 107 % of control | dose: 100.0 mg/kg/injection, schedule: Q04DX003 (ip), vehicle: saline 98 % of control

C=C1OC(=O)C(N)=C1C(C)=O
inactive: dose: 60.0 mg/kg/injection, schedule: Q01DX005 (ip), vehicle: saline with Tween-80 99 % of control | dose: 120.0 mg/kg/injection, schedule: Q01DX005 (ip), vehicle: saline with Tween-80 97 % of control | dose: 240.0 mg/kg/injection, schedule: Q01DX005 (ip), vehicle: saline with Tween-80 95 % of control
